Results as given in ChEMBL document CHEMBL1275577, “Study of the in vitro activities of rifaximin and comparator agents against 536 anaerobic intestinal bacteria from the perspective of potential utility in pathology involving bowel flora” (Antimicrob Agents Chemother, 2009).

Legend:
Format in all cases: functional
[1] = system: Lactobacillus acidophilus; assay: Antimicrobial activity against Lactobacillus acidophilus by Wadsworth agar dilution method in presence of beta-lactamase inhibitor Sulbactam
[2] = system: Lacticaseibacillus rhamnosus; assay: Antimicrobial activity against Lactobacillus rhamnosus by Wadsworth agar dilution method in presence of beta-lactamase inhibitor Sulbactam
Eubacterium limosum = assay: Antimicrobial activity against Eubacterium limosum by Wadsworth agar dilution method in presence of beta-lactamase inhibitor Sulbactam
[3] = system: Limosilactobacillus fermentum; assay: Antimicrobial activity against Lactobacillus fermentum by Wadsworth agar dilution method in presence of beta-lactamase inhibitor Sulbactam
Bacteroides nordii = assay: Antimicrobial activity against Bacteroides nordii by Wadsworth agar dilution method in presence of beta-lactamase inhibitor Sulbactam
Fusobacterium nucleatum = assay: Antimicrobial activity against Fusobacterium nucleatum by Wadsworth agar dilution method in presence of beta-lactamase inhibitor Sulbactam
[4] = system: Pseudoramibacter alactolyticus; assay: Antimicrobial activity against Eubacterium alactolyticum by Wadsworth agar dilution method in presence of beta-lactamase inhibitor Sulbactam
[5] = system: Clostridium paraputrificum; assay: Antimicrobial activity against Clostridium paraputrificum by Wadsworth agar dilution method in presence of beta-lactamase inhibitor Sulbactam
[6] = system: Lactobacillus catenaformis; assay: Antimicrobial activity against Lactobacillus catenaformis by Wadsworth agar dilution method in presence of beta-lactamase inhibitor Sulbactam; conditions: Eggerthia catenaformis
Holdemania filiformis = assay: Antimicrobial activity against Holdemania filiformis by Wadsworth agar dilution method in presence of beta-lactamase inhibitor Sulbactam
Bacteroides ovatus = assay: Antimicrobial activity against Bacteroides ovatus by Wadsworth agar dilution method in presence of beta-lactamase inhibitor Sulbactam
Eubacterium rectale = assay: Antimicrobial activity against Eubacterium rectale by Wadsworth agar dilution method in presence of beta-lactamase inhibitor Sulbactam; conditions: Agathobacter rectalis
Eggerthella lenta = assay: Antimicrobial activity against Eggerthella lenta by Wadsworth agar dilution method in presence of beta-lactamase inhibitor Sulbactam
Eubacterium cylindroides = assay: Antimicrobial activity against Eubacterium cylindroides by Wadsworth agar dilution method in presence of beta-lactamase inhibitor Sulbactam; conditions: Faecalitalea cylindroides
Bacteroides stercoris = assay: Antimicrobial activity against Bacteroides stercoris by Wadsworth agar dilution method in presence of beta-lactamase inhibitor Sulbactam
[7] = system: Parabacteroides goldsteinii; assay: Antimicrobial activity against Parabacteroides goldsteinii by Wadsworth agar dilution method in presence of beta-lactamase inhibitor Sulbactam
[8] = system: Clostridium acetobutylicum; assay: Antimicrobial activity against Clostridium acetobutylicum by Wadsworth agar dilution method in presence of beta-lactamase inhibitor Sulbactam
Clostridium subterminale = assay: Antimicrobial activity against Clostridium subterminale by Wadsworth agar dilution method in presence of beta-lactamase inhibitor Sulbactam
Flavonifractor plautii = assay: Antimicrobial activity against Clostridium orbiscindens by Wadsworth agar dilution method in presence of beta-lactamase inhibitor Sulbactam
Clostridium perfringens = assay: Antimicrobial activity against Clostridium perfringens by Wadsworth agar dilution method in presence of beta-lactamase inhibitor Sulbactam
[9] = system: Coprobacillus cateniformis; assay: Antimicrobial activity against Coprobacillus cateniformis by Wadsworth agar dilution method in presence of beta-lactamase inhibitor Sulbactam
Schaalia meyeri = assay: Antimicrobial activity against Actinomyces meyeri by Wadsworth agar dilution method in presence of beta-lactamase inhibitor Sulbactam
Clostridium sp. = assay: Antimicrobial activity against Clostridium sp. by Wadsworth agar dilution method in presence of beta-lactamase inhibitor Sulbactam
Bilophila wadsworthia = assay: Antimicrobial activity against Bilophila wadsworthia by Wadsworth agar dilution method in presence of 1% pyruvic acid and beta-lactamase inhibitor Sulbactam
Fusobacterium sp. = assay: Antimicrobial activity against Fusobacterium sp. by Wadsworth agar dilution method in presence of beta-lactamase inhibitor Sulbactam
Bacteroides caccae = assay: Antimicrobial activity against Bacteroides caccae by Wadsworth agar dilution method in presence of beta-lactamase inhibitor Sulbactam
Fusobacterium varium = assay: Antimicrobial activity against Fusobacterium varium by Wadsworth agar dilution method in presence of beta-lactamase inhibitor Sulbactam
Bacteroides fragilis = assay: Antimicrobial activity against Bacteroides fragilis by Wadsworth agar dilution method in presence of beta-lactamase inhibitor Sulbactam
[10] = system: Bacteroides thetaiotaomicron; assay: Antimicrobial activity against Bacteroides thetaiotaomicron by Wadsworth agar dilution method in presence of beta-lactamase inhibitor Sulbactam
Actinomyces viscosus = assay: Antimicrobial activity against Actinomyces viscosus by Wadsworth agar dilution method in presence of beta-lactamase inhibitor Sulbactam
Porphyromonas uenonis = assay: Antimicrobial activity against Porphyromonas uenonis by Wadsworth agar dilution method in presence of beta-lactamase inhibitor Sulbactam
Porphyromonas = assay: Antimicrobial activity against Porphyromonas sp. by Wadsworth agar dilution method in presence of beta-lactamase inhibitor Sulbactam
[11] = system: Prevotella melaninogenica; assay: Antimicrobial activity against Prevotella melaninogenica by Wadsworth agar dilution method in presence of beta-lactamase inhibitor Sulbactam
[12] = system: Catenibacterium mitsuokai; assay: Antimicrobial activity against Catenibacterium mitsuokai by Wadsworth agar dilution method in presence of beta-lactamase inhibitor Sulbactam

With `CC1(C)S[C@@H]2[C@H](NC(=O)[C@H](N)c3ccccc3)C(=O)N2[C@H]1C(=O)O` [AMPICILLIN] the MIC [1] was 0.25 µg/mL, the MIC50 [1] was 0.25 µg/mL and the MIC90 [1] was 2 µg/mL. For the same molecule, the MIC [2] was 0.25 µg/mL, the MIC50 [2] was 0.25 µg/mL and the MIC90 [2] was 2 µg/mL. For the same molecule, the MIC (Eubacterium limosum) was 0.25 µg/mL, the MIC50 (Eubacterium limosum) was 0.25 µg/mL and the MIC90 (Eubacterium limosum) was 2 µg/mL. For the same molecule, the MIC [3] was 0.25 µg/mL, the MIC50 [3] was 0.25 µg/mL and the MIC90 [3] was 2 µg/mL. It also gave an MIC50 (Bacteroides nordii) of 2 µg/mL, an MIC90 (Bacteroides nordii) of 16 µg/mL and an MIC50 (Fusobacterium nucleatum) of 0.25 µg/mL. It also gave an MIC90 (Fusobacterium nucleatum) of 0.25 µg/mL, an MIC [4] of 0.25 µg/mL and an MIC50 [4] of 0.25 µg/mL. It also gave an MIC90 [4] of 2 µg/mL, an MIC [5] of 0.25 µg/mL and an MIC50 [5] of 0.25 µg/mL. It also gave an MIC90 [5] of 1 µg/mL, an MIC [6] of 0.25 µg/mL and an MIC50 [6] of 0.25 µg/mL. For the same molecule, the MIC90 [6] was 2 µg/mL, the MIC (Holdemania filiformis) was 0.25 µg/mL and the MIC50 (Holdemania filiformis) was 0.25 µg/mL. It also gave an MIC90 (Holdemania filiformis) of 2 µg/mL, an MIC50 (Bacteroides ovatus) of 8 µg/mL and an MIC90 (Bacteroides ovatus) of 32 µg/mL. The MIC (Eubacterium rectale) was 0.25 µg/mL, the MIC50 (Eubacterium rectale) was 0.25 µg/mL and the MIC90 (Eubacterium rectale) was 2 µg/mL. The MIC (Eggerthella lenta) was 0.25 µg/mL, the MIC50 (Eggerthella lenta) was 0.25 µg/mL and the MIC90 (Eggerthella lenta) was 2 µg/mL. The MIC (Eubacterium cylindroides) was 0.25 µg/mL, the MIC50 (Eubacterium cylindroides) was 0.25 µg/mL and the MIC90 (Eubacterium cylindroides) was 2 µg/mL. It also gave an MIC50 (Bacteroides stercoris) of 2 µg/mL, an MIC90 (Bacteroides stercoris) of 16 µg/mL and an MIC50 [7] of 16 µg/mL. The MIC90 [7] was 32 µg/mL, the MIC [8] was 0.25 µg/mL and the MIC50 [8] was 0.25 µg/mL. For the same molecule, the MIC90 [8] was 1 µg/mL, the MIC (Clostridium subterminale) was 0.25 µg/mL and the MIC50 (Clostridium subterminale) was 0.25 µg/mL. The MIC90 (Clostridium subterminale) was 1 µg/mL, the MIC (Flavonifractor plautii) was 2 µg/mL and the MIC50 (Flavonifractor plautii) was 2 µg/mL. The MIC90 (Flavonifractor plautii) was 4 µg/mL, the MIC50 (Clostridium perfringens) was 0.25 µg/mL and the MIC90 (Clostridium perfringens) was 0.25 µg/mL. It also gave an MIC [9] of 0.25 µg/mL, an MIC50 [9] of 0.25 µg/mL and an MIC90 [9] of 2 µg/mL. For the same molecule, the MIC (Schaalia meyeri) was 0.25 µg/mL, the MIC50 (Schaalia meyeri) was 0.25 µg/mL and the MIC90 (Schaalia meyeri) was 2 µg/mL. For the same molecule, the MIC (Clostridium sp.) was 0.25 µg/mL, the MIC50 (Clostridium sp.) was 0.25 µg/mL and the MIC90 (Clostridium sp.) was 1 µg/mL. For the same molecule, the MIC50 (Bilophila wadsworthia) was 2 µg/mL, the MIC90 (Bilophila wadsworthia) was 16 µg/mL and the MIC50 (Fusobacterium sp.) was 1 µg/mL. For the same molecule, the MIC90 (Fusobacterium sp.) was 4 µg/mL, the MIC50 (Bacteroides caccae) was 16 µg/mL and the MIC90 (Bacteroides caccae) was 32 µg/mL. For the same molecule, the MIC50 (Fusobacterium varium) was 1 µg/mL, the MIC90 (Fusobacterium varium) was 4 µg/mL and the MIC50 (Bacteroides fragilis) was 1 µg/mL. For the same molecule, the MIC90 (Bacteroides fragilis) was 16 µg/mL, the MIC50 [10] was 4 µg/mL and the MIC90 [10] was 16 µg/mL. It also gave an MIC (Actinomyces viscosus) of 0.25 µg/mL, an MIC50 (Actinomyces viscosus) of 0.25 µg/mL and an MIC90 (Actinomyces viscosus) of 2 µg/mL. It also gave an MIC (Porphyromonas uenonis) of 0.25 µg/mL, an MIC50 (Porphyromonas uenonis) of 0.25 µg/mL and an MIC90 (Porphyromonas uenonis) of 0.5 µg/mL. For the same molecule, the MIC (Porphyromonas) was 0.25 µg/mL, the MIC50 (Porphyromonas) was 0.25 µg/mL and the MIC90 (Porphyromonas) was 0.5 µg/mL. For the same molecule, the MIC50 [11] was 0.5 µg/mL, the MIC90 [11] was 4 µg/mL and the MIC [12] was 0.25 µg/mL. It also gave an MIC50 [12] of 0.25 µg/mL and an MIC90 [12] of 2 µg/mL.
